Source: ChEMBL document CHEMBL1147488, “Methanesulfonamide group at position-4 of the C-5-phenyl ring of 1,5-diarylpyrazole affords a potent class of cyclooxygenase-2 (COX-2) inhibitors” (Bioorg Med Chem Lett, 2004)

Assays:
[1] = biological target: T1, Prostaglandin G/H synthase 2 (Homo sapiens) (UniProt P35354); details: Sf9; at 10 µM;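 also: in vitro assay on recombinant human COX-2 produced in baculovirus-infected Sf9 insect cells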
T1 sequence (whole entry): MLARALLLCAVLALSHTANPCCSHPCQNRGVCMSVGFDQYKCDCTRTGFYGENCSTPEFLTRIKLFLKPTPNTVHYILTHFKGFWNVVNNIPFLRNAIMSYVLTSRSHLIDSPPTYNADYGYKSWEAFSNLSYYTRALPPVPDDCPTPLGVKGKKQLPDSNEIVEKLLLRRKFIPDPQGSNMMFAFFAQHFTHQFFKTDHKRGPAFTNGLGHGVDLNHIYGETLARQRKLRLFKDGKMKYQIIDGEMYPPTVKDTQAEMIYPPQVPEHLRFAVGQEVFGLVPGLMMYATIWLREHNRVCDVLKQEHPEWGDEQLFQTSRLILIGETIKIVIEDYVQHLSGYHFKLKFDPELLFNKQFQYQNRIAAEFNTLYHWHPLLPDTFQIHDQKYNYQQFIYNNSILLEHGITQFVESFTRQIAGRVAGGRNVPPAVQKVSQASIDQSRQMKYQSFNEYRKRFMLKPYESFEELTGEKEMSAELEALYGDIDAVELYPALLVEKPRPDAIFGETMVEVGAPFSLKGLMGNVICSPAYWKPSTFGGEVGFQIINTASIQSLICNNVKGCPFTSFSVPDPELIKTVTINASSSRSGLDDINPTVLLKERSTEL
Description: In vitro inhibitory activity against human recombinant prostaglandin G/H synthase 2 (COX-2) at 10 uM expressed in sf-9 cells infected with baculovirus

[2] = biological target: T2, Prostaglandin G/H synthase 1 (Ovis aries) (UniProt P05979); details: at 10 µM
T2 sequence (whole entry): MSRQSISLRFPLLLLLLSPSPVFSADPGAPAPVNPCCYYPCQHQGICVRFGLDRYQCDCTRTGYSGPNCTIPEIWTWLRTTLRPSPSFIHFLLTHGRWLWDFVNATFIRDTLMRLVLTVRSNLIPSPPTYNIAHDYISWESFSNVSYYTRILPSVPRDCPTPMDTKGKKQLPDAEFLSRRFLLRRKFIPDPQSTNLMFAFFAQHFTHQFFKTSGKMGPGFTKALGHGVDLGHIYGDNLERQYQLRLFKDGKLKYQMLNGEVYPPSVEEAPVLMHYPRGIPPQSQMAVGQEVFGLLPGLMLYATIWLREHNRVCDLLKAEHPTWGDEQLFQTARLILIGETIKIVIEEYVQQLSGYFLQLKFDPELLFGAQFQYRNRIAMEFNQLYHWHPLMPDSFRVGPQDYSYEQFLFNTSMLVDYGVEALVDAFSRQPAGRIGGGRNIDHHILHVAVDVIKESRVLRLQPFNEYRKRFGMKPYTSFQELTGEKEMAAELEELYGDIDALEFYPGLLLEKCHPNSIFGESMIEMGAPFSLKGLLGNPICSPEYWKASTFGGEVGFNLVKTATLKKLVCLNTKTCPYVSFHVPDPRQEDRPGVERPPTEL
Description: In vitro inhibitory activity against prostaglandin G/H synthase 1 (COX-1) from the microsomal fraction of ram seminal vesicles at 10 uM concentration

[3] = biological target: T3, Prostaglandin G/H synthase 1 (Ovis aries, UniProt P05979); experiment: In vitro inhibitory activity against prostaglandin G/H synthase 1 from the microsomal fraction of ram seminal vesicles
T3 sequence (P05979 whole entry): T2 sequence (whole entry)

| inhibition [1] [%] | inhibition [2] [%] | IC50 [3] [µM] | Structure (SMILES) |
| --- | --- | --- | --- |
| 31 | 22 |  | CS(=O)(=O)Nc1ccc(-c2cc(C(F)F)nn2-c2ccccc2)cc1 |
| 100 | 85 | 3.4 | CN(C)c1ccc(-n2nc(C(F)(F)F)cc2-c2ccc(NS(C)(=O)=O)cc2)cc1 |
| 0 | 100 |  | CS(=O)(=O)Nc1ccc(-c2cc(C(F)F)nn2-c2ccc(S(N)(=O)=O)cc2CO)cc1 |
| 100 | 88 | 4.9 | CS(=O)(=O)Nc1ccc(-c2cc(C(F)(F)F)nn2-c2ccc(Br)cc2)cc1 |
| 65 | 6 | 20.3 | CS(=O)(=O)Nc1ccc(-c2cc(C(F)(F)F)nn2-c2ccc(F)cc2)cc1 |
| 12 | 42 |  | CS(=O)(=O)Nc1ccc(-c2cc(C(F)(F)F)nn2-c2ccc(S(N)(=O)=O)cc2CO)cc1 |
| 89 | 90 |  | CS(=O)(=O)Nc1ccc(-c2cc(C(F)F)nn2-c2ccccc2F)cc1 |
| 7 | 34 |  | Cc1cc(-c2ccc(NS(C)(=O)=O)cc2)n(-c2ccccc2)n1 |
| 0 | 40 |  | Cc1cc(-c2ccc(NS(C)(=O)=O)cc2)n(-c2ccc([N+](=O)[O-])cc2)n1 |
| 36 | 11 |  | CS(=O)(=O)Nc1ccc(-c2cc(C(F)F)nn2-c2ccc(F)c(F)c2)cc1 |
| 0 | 59 |  | CC(=O)Nc1ccc(-c2cc(C(F)(F)F)nn2-c2ccc(S(N)(=O)=O)cc2CO)cc1 |
| 22 | 66 |  | CS(=O)(=O)Nc1ccc(-c2cc(C(F)F)nn2-c2ccccc2Cl)cc1 |
| 80 | 9 | 13.3 | CC(=O)Nc1ccc(-c2cc(C)nn2-c2ccc(Br)cc2)cc1 |
| 69 | 22 | 31.6 | CS(=O)(=O)Nc1ccc(-c2cc(C(F)(F)F)nn2-c2ccc(N)cc2)cc1 |
| 88 | 0 | 100 | Cc1cc(-c2ccc(NS(C)(=O)=O)cc2)n(-c2ccc(Cl)cc2)n1 |
| 100 | 0 | 85.3 | CS(=O)(=O)Nc1ccc(-c2cc(C(F)(F)F)nn2-c2ccccc2)cc1 |
| 13 | 14 |  | CS(=O)(=O)N(c1ccc(-c2cc(C(F)(F)F)nn2-c2ccc(Cl)cc2)cc1)S(C)(=O)=O |
| 13 | 0 |  | Cc1cc(-c2ccc(NS(C)(=O)=O)cc2)n(-c2ccc([N+](=O)[O-])cn2)n1 |
| 70 | 49 |  | CS(=O)(=O)Nc1ccc(-c2cc(C(F)(F)F)nn2-c2cccc(F)c2)cc1 |
| 62 | 0 |  | CCCC(=O)N(c1ccc(-c2cc(C(F)(F)F)nn2-c2ccc(Cl)cc2)cc1)S(C)(=O)=O |
| 63 | 0 |  | CC(=O)N(c1ccc(-c2cc(C(F)(F)F)nn2-c2ccc(Cl)cc2)cc1)S(C)(=O)=O |
| 67 | 97 |  | CS(=O)(=O)Nc1ccc(-c2cc(C(F)F)nn2-c2cccc(F)c2)cc1 |
| 70 | 10 |  | CS(=O)(=O)Nc1ccc(-c2cc(C(F)(F)F)nn2-c2ccc(Cl)c(Cl)c2)cc1 |

The remaining lines, values behind:

| Structure (SMILES) | inhibition [1] [%] | inhibition [2] [%] | IC50 [3] [µM] |
| --- | --- | --- | --- |
| CCC(=O)N(c1ccc(-c2cc(C(F)F)nn2-c2ccc(Cl)cc2)cc1)S(C)(=O)=O | 36 | 100 |  |
| CS(=O)(=O)Nc1ccc(-c2cc(C(F)(F)F)nn2-c2ccc([N+](=O)[O-])cn2)cc1 | 13 | 0 |  |
| Cc1cc(-c2ccc(NS(C)(=O)=O)cc2)n(-c2ccc(F)cc2)n1 | 25 | 0 |  |
| Cc1ccc(S(=O)(=O)Nc2ccc(-c3cc(C(F)(F)F)nn3-c3ccc(Cl)cc3)cc2)cc1 | 70 | 0 |  |
| CS(=O)(=O)Nc1ccc(-c2cc(C(F)(F)F)nn2-c2ccccc2F)cc1 | 89 | 97 |  |
| CC(=O)Nc1ccc(-c2cc(C(F)(F)F)nn2-c2ccc(Br)cc2)cc1 | 87 | 100 | 3.5 |
| CCC(=O)N(c1ccc(-c2cc(C(F)(F)F)nn2-c2ccc(Cl)cc2)cc1)S(C)(=O)=O | 65 | 18 |  |
| CS(=O)(=O)Nc1ccc(-c2cc(C(F)(F)F)nn2-c2ccc(Cl)cc2)cc1 | 100 | 25 | 15.6 |
| CS(=O)(=O)Nc1ccc(-c2cc(C(F)(F)F)nn2-c2cccc(Cl)c2)cc1 | 3 | 96 |  |
| CS(=O)(=O)Nc1ccc(-c2cc(C(F)F)nn2-c2ccc(Cl)cc2)cc1 | 100 | 0 | 63 |
| CS(=O)(=O)Nc1ccc(-c2cc(C(F)F)nn2-c2ccc(Cl)c(Cl)c2)cc1 | 71 | 43 |  |
| Cc1cc(-c2ccc(NS(C)(=O)=O)cc2)n(-c2ccc(Br)cc2)n1 | 100 | 10 | 63 |
| CCCC(=O)N(c1ccc(-c2cc(C(F)F)nn2-c2ccc(Cl)cc2)cc1)S(C)(=O)=O | 42 | 100 |  |
| CS(=O)(=O)Nc1ccc(-c2cc(C(F)F)nn2-c2ccc(F)cc2)cc1 | 62 | 22 |  |
| CC(=O)N(c1ccc(-c2cc(C(F)F)nn2-c2ccc(Cl)cc2)cc1)S(C)(=O)=O | 17 | 66 |  |
| CS(=O)(=O)Nc1ccc(-c2cc(C(F)(F)F)nn2-c2ccc(F)c(F)c2)cc1 | 59 | 32 |  |
| CNc1ccc(-n2nc(C(F)(F)F)cc2-c2ccc(NS(C)(=O)=O)cc2)cc1 | 42 | 14 |  |
| CS(=O)(=O)Nc1ccc(-c2cc(C(F)(F)F)nn2-c2ccc([N+](=O)[O-])cc2)cc1 | 0 | 34 |  |
